Measured values from PMC8555909, “Identification of CYP 2A6 inhibitors in an effort to mitigate the harmful effects of the phytochemical nicotine” (Journal of cancer metastasis and treatment, 2021).
pIC50: −log10 of the molar value.

Biological target: T1, human CYP2A6 enzyme (cytochrome P450 2A6) (Homo sapiens, UniProt P11509)
T1 construct: purchased Life Technologies PV6140; host or cells: insect cells (baculosomes)
T1 sequence (P11509 1-494): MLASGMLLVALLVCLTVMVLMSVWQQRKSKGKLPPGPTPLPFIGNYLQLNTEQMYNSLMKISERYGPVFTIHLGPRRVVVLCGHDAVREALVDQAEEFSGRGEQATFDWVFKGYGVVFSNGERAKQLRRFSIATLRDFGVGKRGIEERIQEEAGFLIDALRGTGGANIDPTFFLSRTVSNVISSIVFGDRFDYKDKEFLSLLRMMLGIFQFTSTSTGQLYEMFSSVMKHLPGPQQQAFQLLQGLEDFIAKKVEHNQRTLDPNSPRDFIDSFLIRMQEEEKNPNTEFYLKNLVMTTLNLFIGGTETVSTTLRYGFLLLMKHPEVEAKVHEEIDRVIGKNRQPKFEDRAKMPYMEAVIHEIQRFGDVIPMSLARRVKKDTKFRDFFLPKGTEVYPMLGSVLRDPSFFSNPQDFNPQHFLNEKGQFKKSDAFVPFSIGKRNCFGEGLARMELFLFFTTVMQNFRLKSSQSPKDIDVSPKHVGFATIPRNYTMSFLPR
Assay: P450 2A6 inhibition assay (Vivid CYP450 Screening Kit, baculosomes)
Type: biochemical
Settings: for pIC50: microsomes from insect cells expressing human CYP2A6, 10 min pre-incubation, 2 h reaction at room temperature, highest concentration in dose-response curves 40 μM, triplicates; for P450 2A6 inhibition activity (in words): screening at 10 μM followed by dose-response curve; for IC50 of P450 2A6 inhibition (in words): dose-response curve
Method: Cytochrome P450 2A6 (Cyp2A6) activity was determined using the Vivid CYP450 Screening Kit (Life Technologies, catalog #PV6140) according to the manufacturer’s instructions. Briefly, a master pre-mix containing baculosomes and regeneration system was prepared using 0.5× Vivid reaction buffer II. The test compounds were dissolved in dimethyl sulfoxide (DMSO) at a concentration of 100 mM. From the stock solutions, each compound was serially diluted in 0.5× Vivid reaction buffer II to make working stocks of 100 μM, 50 μM, 25 μM and so on up to 10 dilutions. It is essential to dilute the DMSO at least 1000-fold when making the working dilutions to prevent its interference with the enzyme activity. An initial high-throughput screening was performed at 10 μM concentration for each compound. For the dose-response curve determination, in a 96-well plate, 40 μL of the diluted solutions of each test compound were added to each well, followed by 50 μl of the master pre-mix, before incubation for 10 min at room temperature. A 10× mixture of Vivid substrate (reconstituted with acetonitrile) and NADP^+ was then prepared. At the end of the incubation period, 10 μL of this solution was added to each well to start the reaction. After 2 hours of incubation in the dark at room temperature, the plate was read at 415 nm on a plate reader (Synergy H1, Biotek). For a positive inhibition control, tranylcypromine (Sigma-Aldrich, cat. #P8511) was used at a final concentration of 100 μM. For a negative (no inhibitor) control, a 1:1000 dilution of pure DMSO in 0.5× Vivid reaction buffer was used. Each concentration in the dose-response curve was set up in triplicates, and each data point was the average of triplicate wells. The % inhibition was calculated using the following equation. %Inhibition=(1−X−B/A−B)*100 where X is the fluorescence observed in presence of the test compound; A is the fluorescence observed in the absence of an inhibitor (no inhibitor control); and B is the fluorescence observed for the positive control. For graphing purposes, percent inhibition vs. anti-log[drug concentration] was plotted. A logistic sigmoidal model was used to fit the data and obtain IC50 values using Graphpad Prism software.
The syntheses of compounds 1 to 7 [Figure 1] were accomplished using the synthetic Schemes 1 and 2. […] Nicotine-mimicking compounds containing imidazole or methyl substituted imidazole side chains with varied sizes of 1–3 carbon alkyl spacers at position 3 of the pyridine ring were synthesized using Scheme 1 (compounds 1, 4 and 7). Based on our previous findings that acetylenic substituents can interact with the P450 active site amino acids and lead to mechanism-based inhibition, triple bond in the form of propargyl ether was incorporated in a second series of compounds at positions 2, 3 or 4 of the pyridine ring as an ether linkage (compounds 3, 6 and 2, respectively). Positions 2 and 4 were used to investigate whether substituted compounds at those positions would show a difference in their inhibition activities compared to the 3-position substituted compound. A longer spacer in between the propargyl ether and the 4-position of the pyridine ring was introduced to investigate whether a greater flexibility in the positioning of the key functional groups (pyridine ring and the alkyne moiety) in the binding site would be achieved. The Vivid CYP450 Screening Kit (Life Technologies, catalog #PV6140) was used for the P450 2A6 inhibition assays. An initial high-throughput screening was performed at a 10 μM concentration followed by a dose-response curve determination.
The inhibition studies on our compounds were performed using a Vivid CYP2A6 Kit (Life Technologies, catalog #PV6140). This kit uses microsomes from insect cells stably expressing human CYP2A6 enzyme. […]

Compound | pIC50 | P450 2A6 inhibition activity (in words) | IC50 of P450 2A6 inhibition (in words)
Cc1nccn1Cc1cccnc1 [Compound 7, 3-[(2-methyl-1H-imidazol-1-yl)methyl] pyridine] | < 4.40 | moderate inhibition activity | –
C#CCOCCCc1ccncc1 [Compound 5, 4-(3-(prop-2-yn-1-yloxy)propyl)pyridine] | < 4.40 | moderate inhibition activity | –
c1cncc(Cn2ccnc2)c1 [Compound 4, 3-((1H-imidazol-1-yl)methyl)pyridine] | 5.30 | – | single digit micromolar
Cc1nccn1CCCc1cccnc1 [Compound 1] | 5.04 | – | single digit micromolar
C#CCOc1ccccn1 [Compound 3, 2-(prop-2-yn-1-yloxy)pyridine] | – | did not inhibit | –
C#CCOc1ccncc1 [Compound 2, 4-(prop-2-yn-1-yloxy)pyridine] | < 4.40 | much lower inhibition | –
C#CCOCc1cccnc1 [Compound 6, 3-((prop-2-yn-1-yloxy)methyl)pyridine] | 6.00 | – | single digit micromolar
